Measured values published in patent publication US20230085307A1, “PYRIDAZINONE COMPOUND AND HERBICIDE” (NISSAN CHEMICAL CORPORATION, priority 2019, published 2023).

Experiments:
late watergrass = experiment: Test Example 1: herbicidal activity, application before weed generation under submerged conditions (Table 16, symbol A); format: in vivo, late watergrass (Echinochloa oryzicola); conditions: amount of applied herbicide 320 g/ha
Summary of the method: (§1)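 Alluvial soil was flooded to 4 cm depth, weed seeds were sown mixed and 2.5-leaf rice seedlings were transplanted. On sowing day, the compound's emulsion, diluted in water to a set dose, was applied to the water surface. Plants grew at 25–30 °C and were scored 0–5 after three weeks.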

Japanese bulrush = experiment: Test Example 1: herbicidal activity, application before weed generation under submerged conditions (Table 16, symbol B); format: in vivo, Japanese bulrush (Schoenoplectus juncoides); conditions: amount of applied herbicide 320 g/ha
Summary of the method: as §1

oval-leafed pondweed = experiment: Test Example 1: herbicidal activity, application before weed generation under submerged conditions (Table 16, symbol C); format: in vivo, oval-leafed pondweed (Monochoria vaginalis); conditions: amount of applied herbicide 320 g/ha
Summary of the method: as §1

barnyard grass [1] = experiment: Test Example 3: herbicidal effect by foliage application, Wagner pot (Table 18, symbol H); format: in vivo, barnyard grass (Echinochloa crus-galli); conditions: amount of applied herbicide 320 g/ha
Summary of the method: (§2)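 Plants were sown in alluvial soil held under 0.1–0.5 cm standing water and grown 14 days in a greenhouse at 25–30 °C. An emulsifiable formulation, water-diluted to the set dose, was then sprayed onto the foliage, and effects were scored three weeks later using previously defined criteria.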

Chinese sprangletop = experiment: Test Example 3: herbicidal effect by foliage application, Wagner pot (Table 18, symbol D); format: in vivo, chinese sprangletop (Leptochloa chinensis); conditions: amount of applied herbicide 320 g/ha
Summary of the method: as §2

rice flat sedge = experiment: Test Example 3: herbicidal effect by foliage application, Wagner pot (Table 18, symbol E); format: in vivo, rice flat sedge (Cyperus iria); conditions: amount of applied herbicide 320 g/ha
Summary of the method: as §2

southern crabgrass [2] = experiment: Test Example 4: herbicidal effect by soil treatment (Table 19, symbol F); format: in vivo, southern crabgrass (Digitaria ciliaris); conditions: amount of applied herbicide 320 g/ha
Summary of the method: (§3)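 Pre-emergence style soil spray: seeds under ~1.5 cm sterilized diluvial soil received a uniform coat of emulsion diluted to the predetermined herbicide amount. Greenhouse 25–30° C; readout at week three on previously defined criteria.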

green foxtail [3] = experiment: Test Example 4: herbicidal effect by soil treatment (Table 19, symbol G); format: in vivo, green foxtail (Setaria viridis); conditions: amount of applied herbicide 320 g/ha
Summary of the method: as §3

barnyard grass [4] = experiment: Test Example 4: herbicidal effect by soil treatment (Table 19, symbol H); format: in vivo, barnyard grass (Echinochloa crus-galli); conditions: amount of applied herbicide 320 g/ha
Summary of the method: as §3

wild oat [5] = experiment: Test Example 4: herbicidal effect by soil treatment (Table 19, symbol I); format: in vivo, wild oat (Avena fatua); conditions: amount of applied herbicide 320 g/ha
Summary of the method: as §3

Italian ryegrass [6] = experiment: Test Example 4: herbicidal effect by soil treatment (Table 19, symbol K); format: in vivo, Italian ryegrass (Lolium multiflorum); conditions: amount of applied herbicide 320 g/ha
Summary of the method: as §3

windgrass [7] = experiment: Test Example 4: herbicidal effect by soil treatment (Table 19, symbol L); format: in vivo, windgrass (Apera spica-venti); conditions: amount of applied herbicide 320 g/ha
Summary of the method: as §3

velvetleaf [8] = experiment: Test Example 4: herbicidal effect by soil treatment (Table 19, symbol M); format: in vivo, velvetleaf (Abutilon theophrasti); conditions: amount of applied herbicide 320 g/ha
Summary of the method: as §3

redroot pigweed [9] = experiment: Test Example 4: herbicidal effect by soil treatment (Table 19, symbol N); format: in vivo, redroot pigweed (Amaranthus retroflexus); conditions: amount of applied herbicide 320 g/ha
Summary of the method: as §3

lambsquarters [10] = experiment: Test Example 4: herbicidal effect by soil treatment (Table 19, symbol O); format: in vivo, lambsquarters (Chenopodium album); conditions: amount of applied herbicide 320 g/ha
Summary of the method: as §3

chickweed [11] = experiment: Test Example 4: herbicidal effect by soil treatment (Table 19, symbol P); format: in vivo, common chickweed (Stellaria media); conditions: amount of applied herbicide 320 g/ha
Summary of the method: as §3

persian speedwell [12] = experiment: Test Example 4: herbicidal effect by soil treatment (Table 19, symbol R); format: in vivo, Persian speedwell (Veronica persica); conditions: amount of applied herbicide 320 g/ha
Summary of the method: as §3

southern crabgrass [13] = experiment: Test Example 5: herbicidal effect by foliage application, plastic box (Table 20, symbol F); format: in vivo, southern crabgrass (Digitaria ciliaris); conditions: foliage application
Summary of the method: (§4)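 Plants were sown into sterilized diluvial soil under about 1.5 cm cover and kept in a greenhouse at 25° C. to 30° C. Fourteen days on, foliage received an even spray of the diluted emulsion. Herbicidal or crop effect was judged three weeks afterwards.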

green foxtail [14] = experiment: Test Example 5: herbicidal effect by foliage application, plastic box (Table 20, symbol G); format: in vivo, green foxtail (Setaria viridis); conditions: foliage application
Summary of the method: as §4

barnyard grass [15] = experiment: Test Example 5: herbicidal effect by foliage application, plastic box (Table 20, symbol H); format: in vivo, barnyard grass (Echinochloa crus-galli); conditions: foliage application
Summary of the method: as §4

wild oat [16] = experiment: Test Example 5: herbicidal effect by foliage application, plastic box (Table 20, symbol I); format: in vivo, wild oat (Avena fatua); conditions: foliage application
Summary of the method: as §4

blackgrass = experiment: Test Example 5: herbicidal effect by foliage application, plastic box (Table 20, symbol J); format: in vivo, blackgrass (Alopecurus myosuroides); conditions: foliage application
Summary of the method: as §4

Italian ryegrass [17] = experiment: Test Example 5: herbicidal effect by foliage application, plastic box (Table 20, symbol K); format: in vivo, Italian ryegrass (Lolium multiflorum); conditions: foliage application
Summary of the method: as §4

windgrass [18] = experiment: Test Example 5: herbicidal effect by foliage application, plastic box (Table 20, symbol L); format: in vivo, windgrass (Apera spica-venti); conditions: foliage application
Summary of the method: as §4

velvetleaf [19] = experiment: Test Example 5: herbicidal effect by foliage application, plastic box (Table 20, symbol M); format: in vivo, velvetleaf (Abutilon theophrasti); conditions: foliage application
Summary of the method: as §4

redroot pigweed [20] = experiment: Test Example 5: herbicidal effect by foliage application, plastic box (Table 20, symbol N); format: in vivo, redroot pigweed (Amaranthus retroflexus); conditions: foliage application
Summary of the method: as §4

lambsquarters [21] = experiment: Test Example 5: herbicidal effect by foliage application, plastic box (Table 20, symbol O); format: in vivo, lambsquarters (Chenopodium album); conditions: foliage application
Summary of the method: as §4

chickweed [22] = experiment: Test Example 5: herbicidal effect by foliage application, plastic box (Table 20, symbol P); format: in vivo, common chickweed (Stellaria media); conditions: foliage application
Summary of the method: as §4

persian speedwell [23] = experiment: Test Example 5: herbicidal effect by foliage application, plastic box (Table 20, symbol R); format: in vivo, Persian speedwell (Veronica persica); conditions: foliage application
Summary of the method: as §4

[24] = AAH 320 g/ha, evaluated three weeks after application
[25] = 320 g/ha, three weeks after application

Row | Structure (SMILES) | Herbicidal effect, A: late watergrass (late watergrass) | Herbicidal effect, B: Japanese bulrush (Japanese bulrush) | Herbicidal effect, C: oval-leafed pondweed (oval-leafed pondweed) | herbicidal effect on H: barnyard grass (barnyard grass [1]) | herbicidal effect on D: Chinese sprangletop (Chinese sprangletop) | herbicidal effect on E: rice flat sedge (rice flat sedge) | herbicidal effect, F: southern crabgrass (southern crabgrass [2]) | herbicidal effect, G: green foxtail (green foxtail [3]) | herbicidal effect, H: barnyard grass (barnyard grass [4]) | herbicidal effect, I: wild oat (wild oat [5]) | herbicidal effect, K: Italian ryegrass (Italian ryegrass [6]) | herbicidal effect, L: windgrass (windgrass [7]) | herbicidal effect, M: velvetleaf (velvetleaf [8]) | herbicidal effect, N: redroot pigweed (redroot pigweed [9]) | herbicidal effect, O: lambsquarters (lambsquarters [10]) | herbicidal effect, P: chickweed (chickweed [11]) | herbicidal effect, R: persian speedwell (persian speedwell [12]) | further results
1 | CCCC(=O)Oc1c(C)nn(C)c(=O)c1-c1c(-c2ccc3c(c2)OC(F)(F)O3)sc2ccc(F)cc12 [2-393] | 3 (Herbicidal rate of 40% or more and less than 70%) | 0 (Herbicidal rate of 5% or less (almost no effect)) | 0 (Herbicidal rate of 5% or less (almost no effect)) | 5 (Herbicidal rate of 90% or more (almost completely withered)) | 1 (Herbicidal rate of 5% or more and less than 20%) | 3 (Herbicidal rate of 40% or more and less than 70%) | 0 (Herbicidal rate of 5% or less (almost no effect)) | 0 (Herbicidal rate of 5% or less (almost no effect)) | 0 (Herbicidal rate of 5% or less (almost no effect)) | 0 (Herbicidal rate of 5% or less (almost no effect)) | 4 (Herbicidal rate of 70% or more and less than 90%) | 5 (Herbicidal rate of 90% or more (almost completely withered)) | 0 (Herbicidal rate of 5% or less (almost no effect)) | 0 (Herbicidal rate of 5% or less (almost no effect)) | 0 (Herbicidal rate of 5% or less (almost no effect)) | 4 (Herbicidal rate of 70% or more and less than 90%) | 4 (Herbicidal rate of 70% or more and less than 90%) | F: southern crabgrass, herbicidal effect (criteria 0-5) (southern crabgrass [13]; [24]): 1 (Herbicidal rate of 5% or more and less than 20%); G: green foxtail, herbicidal effect (criteria 0-5) (green foxtail [14]; [24]): 4 (Herbicidal rate of 70% or more and less than 90%); H: barnyard grass, herbicidal effect (criteria 0-5) (barnyard grass [15]; [24]): 5 (Herbicidal rate of 90% or more (almost completely withered)); I: wild oat, herbicidal effect (criteria 0-5) (wild oat [16]; [24]): 4 (Herbicidal rate of 70% or more and less than 90%); J: blackgrass, herbicidal effect (criteria 0-5) (blackgrass; [24]): 1 (Herbicidal rate of 5% or more and less than 20%); K: Italian ryegrass, herbicidal effect (criteria 0-5) (Italian ryegrass [17]; [24]): 4 (Herbicidal rate of 70% or more and less than 90%); L: windgrass, herbicidal effect (criteria 0-5) (windgrass [18]; [24]): 5 (Herbicidal rate of 90% or more (almost completely withered)); M: velvetleaf, herbicidal effect (criteria 0-5) (velvetleaf [19]; [24]): 4 (Herbicidal rate of 70% or more and less than 90%); N: redroot pigweed, herbicidal effect (criteria 0-5) (redroot pigweed [20]; [24]): 4 (Herbicidal rate of 70% or more and less than 90%); O: lambsquarters, herbicidal effect (criteria 0-5) (lambsquarters [21]; [24]): 4 (Herbicidal rate of 70% or more and less than 90%); P: chickweed, herbicidal effect (criteria 0-5) (chickweed [22]; [24]): 5 (Herbicidal rate of 90% or more (almost completely withered)); R: persian speedwell, herbicidal effect (criteria 0-5) (persian speedwell [23]; [24]): 5 (Herbicidal rate of 90% or more (almost completely withered))
2 | Cc1nn(C)c(=O)c(-c2c(-c3ccc(N(C)C)cc3)sc3ccc(F)cc23)c1O [2-425] | 3 (Herbicidal rate of 40% or more and less than 70%) | 3 (Herbicidal rate of 40% or more and less than 70%) | 0 (Herbicidal rate of 5% or less (almost no effect)) | 4 (Herbicidal rate of 70% or more and less than 90%) | 2 (Herbicidal rate of 20% or more and less than 40%) | 5 (Herbicidal rate of 90% or more (almost completely withered)) | 0 (Herbicidal rate of 5% or less (almost no effect)) | 0 (Herbicidal rate of 5% or less (almost no effect)) | 0 (Herbicidal rate of 5% or less (almost no effect)) | 0 (Herbicidal rate of 5% or less (almost no effect)) | 2 (Herbicidal rate of 20% or more and less than 40%) | 0 (Herbicidal rate of 5% or less (almost no effect)) | 0 (Herbicidal rate of 5% or less (almost no effect)) | 5 (Herbicidal rate of 90% or more (almost completely withered)) | 4 (Herbicidal rate of 70% or more and less than 90%) | 3 (Herbicidal rate of 40% or more and less than 70%) | 5 (Herbicidal rate of 90% or more (almost completely withered)) | F: southern crabgrass, herbicidal effect grade (southern crabgrass [13]; [25]): 5 (Herbicidal rate of 90% or more (almost completely withered)); G: green foxtail, herbicidal effect grade (green foxtail [14]; [25]): 5 (Herbicidal rate of 90% or more (almost completely withered)); H: barnyard grass, herbicidal effect grade (barnyard grass [15]; [25]): 4 (Herbicidal rate of 70% or more and less than 90%); I: wild oat, herbicidal effect grade (wild oat [16]; [25]): 4 (Herbicidal rate of 70% or more and less than 90%); J: blackgrass, herbicidal effect grade (blackgrass; [25]): 4 (Herbicidal rate of 70% or more and less than 90%); K: Italian ryegrass, herbicidal effect grade (Italian ryegrass [17]; [25]): 4 (Herbicidal rate of 70% or more and less than 90%); L: windgrass, herbicidal effect grade (windgrass [18]; [25]): 5 (Herbicidal rate of 90% or more (almost completely withered)); M: velvetleaf, herbicidal effect grade (velvetleaf [19]; [25]): 5 (Herbicidal rate of 90% or more (almost completely withered)); N: redroot pigweed, herbicidal effect grade (redroot pigweed [20]; [25]): 5 (Herbicidal rate of 90% or more (almost completely withered)); O: lambsquarters, herbicidal effect grade (lambsquarters [21]; [25]): 5 (Herbicidal rate of 90% or more (almost completely withered)); P: chickweed, herbicidal effect grade (chickweed [22]; [25]): 5 (Herbicidal rate of 90% or more (almost completely withered)); R: persian speedwell, herbicidal effect grade (persian speedwell [23]; [25]): 5 (Herbicidal rate of 90% or more (almost completely withered))
